Assay results as given in the supplement of paper PMC10307832.

Columns and labels:
Assay in all cases: relative viability (nuclei count vs DMSO), 5 days (fraction); higher = more cells survive
[1] = compound: Cc1ccc2nc(NCCN)c3ncc(C)n3c2c1 + CC(=O)c1c(C)c2cnc(Nc3ccc(N4CCNCC4)cn3)nc2n(C2CCCC2)c1=O [Palbociclib] (partner 0.5 µM)
How it was run: (§1)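 Relative viability equals treated-well nuclei counts divided by vehicle-well nuclei counts. Counts came from 4× images of lung cancer cell lines grown in 1536-well plates for 5 days after pin-tool dosing on the day after seeding. Dosing used one drug alone or a fixed anchor-drug dose plus five library-drug doses (not always all listed) in √10 steps, and values are medians of duplicate plates.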

[2] = compound: O=C(/C=C/c1ccccc1)NC(NC(=S)Nc1cccc2cccnc12)C(Cl)(Cl)Cl [Salubrinal] + CS(=O)(=O)N1CCN(Cc2cc3nc(-c4cccc5[nH]ncc45)nc(N4CCOCC4)c3s2)CC1 [Pictilisib] (partner 1 µM)
How it was run: as §1

[3] = compound: O=C(/C=C/c1ccccc1)NC(NC(=S)Nc1cccc2cccnc12)C(Cl)(Cl)Cl [Salubrinal] + Nc1nc2[nH]cc(CCc3ccc(C(=O)N[C@@H](CCC(=O)O)C(=O)O)cc3)c2c(=O)[nH]1 [Pemetrexed] (partner 0.2 µM)
How it was run: as §1

[4] = compound: Cc1ccc2nc(NCCN)c3ncc(C)n3c2c1 + Cc1nc(NC(=O)N2CCC[C@H]2C(N)=O)sc1-c1ccnc(C(C)(C)C(F)(F)F)c1 [Alpelisib] (partner 2 µM)
How it was run: as §1

| Cell Line | relative viability ([1]; first compound 0.04 µM) | relative viability ([1]; first compound 0.1265 µM) | relative viability ([1]; first compound 0.4 µM) | relative viability ([1]; first compound 1.265 µM) | relative viability ([1]; first compound 4 µM) | relative viability ([2]; first compound 0.08 µM) | relative viability ([2]; first compound 0.253 µM) | relative viability ([2]; first compound 0.8 µM) | relative viability ([2]; first compound 2.53 µM) | relative viability ([2]; first compound 8 µM) | relative viability ([3]; first compound 0.08 µM) | relative viability ([3]; first compound 0.253 µM) | relative viability ([3]; first compound 0.8 µM) | relative viability ([3]; first compound 2.53 µM) | relative viability ([3]; first compound 8 µM) | relative viability ([4]; first compound 0.04 µM) | relative viability ([4]; first compound 0.1265 µM) | relative viability ([4]; first compound 0.4 µM) | relative viability ([4]; first compound 1.265 µM) | relative viability ([4]; first compound 4 µM) |
| --- | --- | --- | --- | --- | --- | --- | --- | --- | --- | --- | --- | --- | --- | --- | --- | --- | --- | --- | --- | --- |
| NCI-H2405 | 0.557 | 0.511 | 0.518 | 0.522 | 0.508 | 0.338 | 0.442 | 0.458 | 0.406 | 0.431 | 1.01 | 1.16 | 1.17 | 1.05 | 1.07 | 0.835 | 0.698 | 0.801 | 0.728 | 0.696 |
| NCI-H3122 | 0.167 | 0.193 | 0.163 | 0.199 | 0.213 | 0.565 | 0.633 | 0.657 | 0.694 | 0.663 | 0.198 | 0.181 | 0.204 | 0.198 | 0.195 | 0.88 | 0.942 | 0.812 | 0.779 | 0.855 |
| PC-3 [JPC-3] | 0.56 | 0.56 | 0.552 | 0.513 | 0.512 | 0.796 | 0.666 | 0.714 | 0.727 | 0.702 | 0.879 | 0.919 | 1.49 | 1.02 | 1.04 | 1.03 | 1.08 | 1.05 | 0.983 | 1.03 |
| PC-14 | 0.447 | 0.488 | 0.475 | 0.386 | 0.244 | 0.792 | 0.597 | 0.668 | 0.702 | 0.626 | 0.114 | 0.154 | 0.147 | 0.124 | 0.108 | 1.03 | 0.893 | 0.92 | 0.896 | 0.806 |
| RERF-LC-KJ | 0.969 | 1 | 1.14 | 1.08 | 0.881 | 0.664 | 0.622 | 0.549 | 0.608 | 0.52 | 0.458 | 0.496 | 0.501 | 0.446 | 0.415 | 0.843 | 0.769 | 0.784 | 0.762 | 0.81 |
| SK-LU-1 | 0.412 | 0.383 | 0.385 | 0.393 | 0.38 | 0.678 | 0.588 | 0.698 | 0.647 | 0.519 | 0.994 | 0.721 | 1.02 | 0.886 | 0.94 | 1.11 | 0.961 | 1.1 | 1.01 | 0.937 |
| SK-MES-1 | 0.341 | 0.298 | 0.351 | 0.341 | 0.326 | 0.435 | 0.339 | 0.356 | 0.305 | 0.335 | 0.993 | 0.784 | 1.11 | 0.896 | 0.914 | 0.904 | 0.848 | 0.846 | 0.866 | 0.848 |
| SW 1573 | 0.396 | 0.461 | 0.399 | 0.428 | 0.134 | 0.539 | 0.406 | 0.537 | 0.465 | 0.471 | 0.952 | 0.586 | 0.941 | 0.69 | 0.742 | 0.81 | 0.667 | 0.871 | 0.572 | 0.676 |
| UMC-11 | 0.34 | 0.322 | 0.322 | 0.317 | 0.341 | 0.655 | 0.688 | 1.02 | 0.933 | 0.882 | 0.766 | 0.675 | 0.968 | 0.729 | 0.726 | 0.946 | 0.906 | 1.03 | 0.995 | 0.817 |
